Laboratory results from ChEMBL document CHEMBL1201862, “PubChem BioAssay data set” (2004).
The source made the active and inactive calls.

Tests used:
[1] = target: Glyceraldehyde-3-phosphate dehydrogenase (Homo sapiens, UniProt P04406)
[2] = target: T1, High affinity choline transporter 1 (Homo sapiens, UniProt Q9GZV3); experiment: human choline transporter blockers, potency – cell-based, 5-point CRC, membrane potential dye, dose response (AID 504840); type: functional
T1 sequence (Q9GZV3 whole entry): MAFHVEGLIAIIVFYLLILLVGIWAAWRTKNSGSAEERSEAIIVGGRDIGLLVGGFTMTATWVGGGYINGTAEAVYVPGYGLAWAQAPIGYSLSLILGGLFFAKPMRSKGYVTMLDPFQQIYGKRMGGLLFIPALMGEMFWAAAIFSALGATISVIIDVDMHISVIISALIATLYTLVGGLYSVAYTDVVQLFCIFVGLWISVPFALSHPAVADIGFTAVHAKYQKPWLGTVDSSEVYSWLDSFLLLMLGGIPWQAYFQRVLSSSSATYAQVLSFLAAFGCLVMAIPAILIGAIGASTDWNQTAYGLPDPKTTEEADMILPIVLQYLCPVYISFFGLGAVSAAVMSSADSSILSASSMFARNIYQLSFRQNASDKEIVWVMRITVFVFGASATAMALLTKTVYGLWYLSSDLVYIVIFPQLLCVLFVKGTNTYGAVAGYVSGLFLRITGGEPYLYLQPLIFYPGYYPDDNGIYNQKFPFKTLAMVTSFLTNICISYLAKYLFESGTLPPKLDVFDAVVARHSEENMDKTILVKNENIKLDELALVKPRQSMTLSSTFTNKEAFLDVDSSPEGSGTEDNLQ

[3] = DRD fibroblast viability loss – cell-based, non-viral oncogenic, luminescence, dose response (AID 1934); type: functional; settings: Homo sapiens
[4] = system: BJ; experiment: BJ-TERT fibroblast viability loss – cell-based, RAS-independent, luminescence, dose response (AID 1933); type: functional; settings: Homo sapiens
[5] = system: BJ; experiment: cells; type: functional, cell-based; settings: Homo sapiens
[6] = system: BJ; experiment: BJ-TERT-LT-ST fibroblast viability loss – cell-based, RAS-independent, luminescence, dose response (AID 1935); type: functional; settings: Homo sapiens;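 note: BJ fibroblasts immortalized with TERT plus LT and ST oncogenes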
[7] = HEK-293T viability loss after treatment – luminescence, T-cell screen hits, cytotoxicity control for TCR NF-kB inhibitor project, dose response (AID 489026); type: functional, cell-based;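 note: cells exposed to compound about 14 hours before the viability readout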
[8] = THP-1 cell cytotoxicity, dose response, cytotoxicity control for non-replicating M. tuberculosis project (AID 489025); type: functional
[9] = NIH3T3 cell viability loss – ATP luminescence, mouse fibroblasts, counter-screen, dose response (AID 2010); type: functional, cell-based;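 note: cells exposed to compound for about 90 hours before reading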
[10] = system: H4; experiment: Luminescence Cell-Based Dose Response HTS to Identify Activators of 5'UTR Stem-Loop Driven Prion Protein mRNA Translation in H4 Neuroglioblastoma Cells. [Related pubchem assays: 1829 (Project Summary), 1814 (Primary HTS)]; type: functional; settings: Homo sapiens
[11] = Luminescence Cell-Based Dose Confirmation HTS to Identify Activators of 5'UTR Stem-Loop Driven Alpha-Synuclein mRNA Translation in H4 Neuroglioblastoma Cells. [Related pubchem assays: 1829 (Project Summary), 1814 (Primary HTS)]; type: functional
[12] = Trypanosoma cruzi growth suppression in host cells – NIH3T3 host cells, beta-gal luminescence, confirmation (AID 2044); type: functional, cell-based;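 note: intracellular parasites grown in NIH/3T3 mouse fibroblasts as host cells; luminescent beta-galactosidase reporter signal from transgenic T. cruzi replicating inside host cells; inhibitors lower the luminescence signal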
[13] = Luminescence Cell-Based Dose Response HTS to Identify Activators of Luciferase Translation or Activity in H4 […] Cells. [Related pubchem assays: 1829 (Project Summary), 1814 (Primary HTS)]; type: functional
[14] = system: P388/ADR; experiment: cells; type: functional; settings: Mus musculus
[15] = system: SN12K1; experiment: cells; type: functional; settings: Homo sapiens
[16] = system: P388; experiment: cells; type: functional; settings: Mus musculus
[17] = cells; type: functional
[18] = target: T2, Nuclear receptor subfamily 0 group B member 1 (Homo sapiens, UniProt P51843); type: functional, cell-based;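 note: HEK293T cells transfected with SF-1 and DAX-1 plus StAR promoter luciferase reporter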
T2 sequence (P51843 whole entry): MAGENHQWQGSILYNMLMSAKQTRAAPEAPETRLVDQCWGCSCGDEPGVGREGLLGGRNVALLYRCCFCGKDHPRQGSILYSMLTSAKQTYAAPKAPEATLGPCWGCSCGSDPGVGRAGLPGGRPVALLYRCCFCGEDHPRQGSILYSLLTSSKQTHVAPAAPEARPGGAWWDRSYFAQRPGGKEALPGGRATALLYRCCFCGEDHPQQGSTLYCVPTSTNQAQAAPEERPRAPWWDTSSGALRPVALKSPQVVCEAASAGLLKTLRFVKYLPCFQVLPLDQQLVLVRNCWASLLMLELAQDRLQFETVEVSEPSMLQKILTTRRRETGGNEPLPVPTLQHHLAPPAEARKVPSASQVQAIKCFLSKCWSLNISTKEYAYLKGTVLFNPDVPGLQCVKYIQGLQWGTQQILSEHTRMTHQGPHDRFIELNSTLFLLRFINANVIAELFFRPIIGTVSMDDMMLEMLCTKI

[19] = cells; type: functional, cell-based
[20] = target: Glucose-6-phosphate 1-dehydrogenase (Homo sapiens, UniProt P11413); experiment: inhibition of Homo sapiens G6PD, dose series – biochemical, fluorescence, selectivity assay for P. falciparum G6PD inhibitor project, dose response (AID 504792); type: functional
[21] = target: T3, Calpain-2 catalytic subunit (Sus scrofa, UniProt P43367); experiment: m-calpain protease blockers, concentration series – biochemical, fluorogenic peptide substrate, dose response (AID 1420); type: functional
T3 sequence (P43367 whole entry): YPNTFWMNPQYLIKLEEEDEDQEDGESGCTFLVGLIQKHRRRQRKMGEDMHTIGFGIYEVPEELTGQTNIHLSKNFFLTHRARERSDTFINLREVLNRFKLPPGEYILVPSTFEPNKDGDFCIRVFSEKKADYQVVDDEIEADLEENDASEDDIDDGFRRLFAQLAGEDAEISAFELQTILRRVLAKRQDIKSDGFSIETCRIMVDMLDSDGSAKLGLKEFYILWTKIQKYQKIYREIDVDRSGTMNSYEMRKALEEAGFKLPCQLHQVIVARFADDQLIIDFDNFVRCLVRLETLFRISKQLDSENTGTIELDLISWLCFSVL

[22] = target: Cytochrome P450 3A4 (Homo sapiens, UniProt P08684);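 note: CYP3A4 tested as one member of a cytochrome P450 panel screen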
[23] = target: Cytochrome P450 2D6 (Homo sapiens, UniProt P10635);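 note: CYP2D6 member of a cytochrome P450 panel assay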
[24] = target: Cytochrome P450 2C19 (Homo sapiens, UniProt P33261); experiment: Cytochrome panel assay with activity outcomes. Panel member name: p450-cyp2c19 Compounds with AC50 equal or less than 10 uM are considered active; type: functional; settings: read-out: AC50
[25] = target: T4, Cytochrome P450 1A2 (Homo sapiens, UniProt P05177);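 note: PubChem cytochrome P450 panel assay, CYP1A2 panel member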
T4 sequence (P05177 whole entry): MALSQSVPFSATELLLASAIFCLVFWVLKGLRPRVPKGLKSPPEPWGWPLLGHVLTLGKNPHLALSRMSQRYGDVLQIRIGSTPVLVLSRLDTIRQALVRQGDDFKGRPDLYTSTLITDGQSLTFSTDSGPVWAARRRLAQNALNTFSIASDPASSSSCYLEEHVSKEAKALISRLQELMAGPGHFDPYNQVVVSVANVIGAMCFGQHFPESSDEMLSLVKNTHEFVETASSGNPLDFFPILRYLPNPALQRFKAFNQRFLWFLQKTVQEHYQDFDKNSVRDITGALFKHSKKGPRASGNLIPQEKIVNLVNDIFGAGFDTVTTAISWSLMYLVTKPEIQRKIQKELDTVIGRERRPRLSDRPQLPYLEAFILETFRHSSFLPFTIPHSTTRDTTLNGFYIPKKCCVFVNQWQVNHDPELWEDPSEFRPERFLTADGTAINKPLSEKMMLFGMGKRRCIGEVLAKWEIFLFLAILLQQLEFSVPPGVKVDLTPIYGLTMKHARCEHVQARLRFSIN

Chain of Glucose-6-phosphate 1-dehydrogenase (P11413 whole entry): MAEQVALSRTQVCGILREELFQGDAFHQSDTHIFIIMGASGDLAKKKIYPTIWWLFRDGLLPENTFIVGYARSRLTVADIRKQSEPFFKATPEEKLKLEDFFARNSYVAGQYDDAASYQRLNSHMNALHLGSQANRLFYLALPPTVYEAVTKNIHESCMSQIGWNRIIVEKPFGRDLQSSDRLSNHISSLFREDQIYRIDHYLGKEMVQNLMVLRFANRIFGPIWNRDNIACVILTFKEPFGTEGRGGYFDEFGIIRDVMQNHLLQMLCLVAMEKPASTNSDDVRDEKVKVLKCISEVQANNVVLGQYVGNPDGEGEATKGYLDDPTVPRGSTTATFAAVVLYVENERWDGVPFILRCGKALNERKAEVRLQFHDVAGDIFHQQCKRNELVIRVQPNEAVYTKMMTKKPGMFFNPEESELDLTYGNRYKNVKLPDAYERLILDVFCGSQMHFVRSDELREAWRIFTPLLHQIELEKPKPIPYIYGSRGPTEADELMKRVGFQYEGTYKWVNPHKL
Chain of Cytochrome P450 3A4 (P08684 whole entry): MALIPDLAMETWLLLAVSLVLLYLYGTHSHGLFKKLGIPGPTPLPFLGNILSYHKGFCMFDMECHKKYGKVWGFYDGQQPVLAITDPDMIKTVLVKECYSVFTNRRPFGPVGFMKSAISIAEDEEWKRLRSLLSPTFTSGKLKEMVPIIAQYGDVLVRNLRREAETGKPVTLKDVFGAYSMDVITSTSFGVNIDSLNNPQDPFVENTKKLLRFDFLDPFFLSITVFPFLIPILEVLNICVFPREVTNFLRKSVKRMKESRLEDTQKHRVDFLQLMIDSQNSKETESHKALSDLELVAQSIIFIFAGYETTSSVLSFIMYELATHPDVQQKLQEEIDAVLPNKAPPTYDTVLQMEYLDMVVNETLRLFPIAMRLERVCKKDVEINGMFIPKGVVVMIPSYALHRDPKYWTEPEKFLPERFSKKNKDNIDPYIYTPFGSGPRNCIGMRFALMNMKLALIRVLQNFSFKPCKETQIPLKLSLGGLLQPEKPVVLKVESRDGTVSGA
Chain of Cytochrome P450 2C19 (P33261 whole entry): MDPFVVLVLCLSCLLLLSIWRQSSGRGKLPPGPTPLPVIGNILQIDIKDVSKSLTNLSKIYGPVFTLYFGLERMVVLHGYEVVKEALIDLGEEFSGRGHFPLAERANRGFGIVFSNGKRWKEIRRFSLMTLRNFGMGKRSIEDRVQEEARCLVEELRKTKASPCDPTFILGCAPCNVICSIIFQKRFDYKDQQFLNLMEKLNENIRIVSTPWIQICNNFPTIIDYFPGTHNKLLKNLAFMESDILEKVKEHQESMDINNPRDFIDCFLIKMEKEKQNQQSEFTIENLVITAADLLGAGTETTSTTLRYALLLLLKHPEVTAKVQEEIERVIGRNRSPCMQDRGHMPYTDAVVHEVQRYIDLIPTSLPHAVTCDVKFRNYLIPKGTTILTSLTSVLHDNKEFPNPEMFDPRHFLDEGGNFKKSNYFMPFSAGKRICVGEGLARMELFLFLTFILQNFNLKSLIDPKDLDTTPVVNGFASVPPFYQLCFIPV
Chain of Glyceraldehyde-3-phosphate dehydrogenase (P04406 whole entry): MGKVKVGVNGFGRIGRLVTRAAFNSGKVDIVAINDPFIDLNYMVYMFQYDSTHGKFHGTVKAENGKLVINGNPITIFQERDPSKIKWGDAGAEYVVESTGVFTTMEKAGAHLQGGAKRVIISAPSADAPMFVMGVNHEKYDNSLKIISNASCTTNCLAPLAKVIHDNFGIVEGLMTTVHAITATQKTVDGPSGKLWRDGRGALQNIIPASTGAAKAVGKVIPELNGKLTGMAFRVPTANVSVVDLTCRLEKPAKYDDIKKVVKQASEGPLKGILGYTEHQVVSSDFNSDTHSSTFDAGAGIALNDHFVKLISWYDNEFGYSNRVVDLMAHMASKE
Chain of Cytochrome P450 2D6 (P10635 whole entry): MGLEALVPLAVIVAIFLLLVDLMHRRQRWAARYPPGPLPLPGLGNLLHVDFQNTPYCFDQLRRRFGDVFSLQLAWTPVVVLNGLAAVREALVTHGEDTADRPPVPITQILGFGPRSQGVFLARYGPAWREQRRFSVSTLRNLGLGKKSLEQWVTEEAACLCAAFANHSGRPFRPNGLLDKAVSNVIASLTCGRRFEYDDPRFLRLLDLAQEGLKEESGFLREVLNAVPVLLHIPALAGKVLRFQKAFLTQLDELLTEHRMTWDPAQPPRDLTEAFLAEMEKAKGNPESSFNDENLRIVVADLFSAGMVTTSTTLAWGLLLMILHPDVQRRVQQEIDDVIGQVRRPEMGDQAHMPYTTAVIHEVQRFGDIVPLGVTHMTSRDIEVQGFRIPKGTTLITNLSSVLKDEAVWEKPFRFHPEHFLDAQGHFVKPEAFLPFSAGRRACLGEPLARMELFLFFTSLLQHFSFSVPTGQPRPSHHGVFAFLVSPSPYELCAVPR

## CN(C)C1=C(Cl)C(=O)N(c2ccc(Cl)nc2)C1=O
[1]
  IC50: > 50 µM (inconclusive)

## Cn1c(-c2ccccc2O)cc2ccccc21
[2]
  IC50: 13.2 µM (active)

## Cc1ccc2c(c1)C=CC(C#N)N2C(=O)c1ccccc1 (centres undefined)
[3]
  EC50: 1.54 µM (active)
[4]
  EC50: 3.69 µM (active)
[5]
  EC50: > 150 µM (not active)
[6]
  EC50: 25.5 µM (inconclusive)
[7]
  IC50: > 80 µM (inactive)

## CCCCCOc1ccc(CSC2=NCCN2)cc1[N+](=O)[O-]
[8]
  CC50: > 40 µM (active)
[9]
  EC50: > 60 µM (not active)
[10]
  EC50: 22.2 µM (active)
[11]
  EC50: 14.1 µM (active)
[12]
  EC50: 534 nM (active)
[13]
  EC50: > 120 µM (not active)

## C=C(OC1C(C)=C2C(C1OC(=O)CCCCCCC)C(C)(OC(C)=O)CC(OC(=O)CCC)C1(O)C2OC(=O)C1(C)O)/C(C)=C/C (centres undefined)
[14]
  GI50: 0.0251 µM (active)
[15]
  GI50: 0.0125 µM (active)
[16]
  GI50: 0.0125 µM (active)

## CC(NC(=O)c1cc2cc(Br)ccc2oc1=N)c1ccccc1 (centres undefined)
[8]
  CC50: 24.6 µM (active)
[17]
  IC50: 33.6 µM (active)

## Cc1ccc(-c2nnc(C)c(N3CCCC3)n2)cc1
[17]
  IC50: 13.2 µM (active)

## N=C(N)Nc1ncccc1[N+](=O)[O-]
[14]
  GI50: 32.9 µM (inactive)
[15]
  GI50: > 100 µM (inactive)
[16]
  GI50: 40.2 µM (inactive)

## COc1cc(OC)c2c(-c3cccc(-c4ccc(NC(C)=O)cc4)c3)cc(=O)oc2c1
[18]
  IC50: > 67.5 µM (inactive)
[19]
  IC50: > 67.5 µM (inactive)

## CCCCOc1ccc(OCCCCCCCCCC[N+](C)(C)C)cc1
[14]
  GI50: 7.05 µM (inactive)
[15]
  GI50: 1.61 µM (inactive)
[16]
  GI50: 0.94 µM (active)

## Cc1ccc(/C=C/C(=O)NCCc2cccc(Cl)c2)o1
[20]
  IC50: > 80 µM (inactive)

## CC(C)Cn1c(-c2ccc(Br)cc2)cnc1S
[21]
  IC50: 12.1 µM (active)

## CN1CCN(C(=O)c2ccc3c(Cl)c4c(nc3c2)CCCC4)CC1
[18]
  IC50: > 67.6 µM (inactive)
[19]
  IC50: > 67.6 µM (inactive)

## Cc1c2c(cc3c1[nH]c1ccccc13)C=NCC2
[14]
  GI50: 8 µM (inactive)
[15]
  GI50: 6.98 µM (inactive)
[16]
  GI50: 6.93 µM (inactive)

## O=C(c1cccc(F)c1)N1CCC2(CC1)CCN(c1ncccn1)CC2
[22]
  AC50: inconclusive
[23]
  AC50: 15.8 µM (inconclusive)
[24]
  AC50: 39.8 µM (inconclusive)
[25]
  AC50: 10 µM (inconclusive)

## CCn1c(SCC(=O)Nc2ccccc2OC)nnc1-c1cnccn1
[20]
  IC50: > 80 µM (inactive)
